Measurements as given in US8026257B2 (Bristol-Myers Squibb Company, priority 2007, dated 2011).
Like-named read-outs stand apart in the source and are kept apart here.

Assays:
NK-1 = biological target: T1, NK-1 (Homo sapiens, UniProt P25103); assay: NK1 radioligand binding assay ([125I]Substance P, U373 membranes); settings: U373 cell membranes, 200 pM [125I]Substance P, 1 hour at room temperature
T1 construct: 30 ul/well of a 2×U373 membrane preparation
Procedure, shortened: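 U373 cell membranes incubated 1 h at room temperature with [125I]Substance P at its Kd (added as 400 pM 2× solution) in Tris-Cl pH 7.5 with MgCl2, BSA, bacitracin and protease inhibitors. Bound radioligand collected on PEI-treated GF/B filters and counted. IC50 from four-parameter fit of triplicates; L-733,060 defined 100% inhibition.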

hSERT = hSERT (Homo sapiens, UniProt P31645); assay: SERT radioligand binding assay ([125I]RTI-55, HEK-hSERT membranes); settings: HEK-293 hSERT membranes, 260 pM [125I]RTI-55, 1 hour at room temperature
hSERT, sequence (P31645 whole entry): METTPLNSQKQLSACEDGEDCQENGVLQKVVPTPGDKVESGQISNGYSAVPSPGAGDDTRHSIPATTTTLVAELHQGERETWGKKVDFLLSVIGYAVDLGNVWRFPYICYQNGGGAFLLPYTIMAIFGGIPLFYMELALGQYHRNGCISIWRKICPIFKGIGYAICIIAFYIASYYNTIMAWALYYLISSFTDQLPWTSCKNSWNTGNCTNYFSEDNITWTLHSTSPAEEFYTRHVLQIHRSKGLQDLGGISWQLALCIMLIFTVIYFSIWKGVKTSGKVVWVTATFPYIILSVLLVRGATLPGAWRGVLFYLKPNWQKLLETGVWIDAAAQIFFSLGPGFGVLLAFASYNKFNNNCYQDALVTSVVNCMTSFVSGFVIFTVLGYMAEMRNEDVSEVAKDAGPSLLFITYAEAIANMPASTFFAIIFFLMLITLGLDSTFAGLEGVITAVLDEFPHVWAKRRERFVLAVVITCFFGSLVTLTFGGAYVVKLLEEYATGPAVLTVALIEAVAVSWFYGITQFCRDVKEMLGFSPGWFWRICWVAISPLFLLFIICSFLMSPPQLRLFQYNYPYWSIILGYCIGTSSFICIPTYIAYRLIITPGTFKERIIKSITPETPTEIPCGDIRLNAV
Procedure, shortened: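 Crude membranes from HEK-293 cells expressing hSERT (15 ug/ml, 2× stock) were incubated 1 hour at room temperature with [125I]RTI-55 (520 pM, 2× stock; at Kd) in pH 7.5 Tris, 120 mM NaCl, 5 mM KCl. Bound ligand was collected by GF/B filtration and scintillation counted. IC50 came from four-parameter fit, fluoxetine defining 100% inhibition.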

T1 sequence (P25103 whole entry): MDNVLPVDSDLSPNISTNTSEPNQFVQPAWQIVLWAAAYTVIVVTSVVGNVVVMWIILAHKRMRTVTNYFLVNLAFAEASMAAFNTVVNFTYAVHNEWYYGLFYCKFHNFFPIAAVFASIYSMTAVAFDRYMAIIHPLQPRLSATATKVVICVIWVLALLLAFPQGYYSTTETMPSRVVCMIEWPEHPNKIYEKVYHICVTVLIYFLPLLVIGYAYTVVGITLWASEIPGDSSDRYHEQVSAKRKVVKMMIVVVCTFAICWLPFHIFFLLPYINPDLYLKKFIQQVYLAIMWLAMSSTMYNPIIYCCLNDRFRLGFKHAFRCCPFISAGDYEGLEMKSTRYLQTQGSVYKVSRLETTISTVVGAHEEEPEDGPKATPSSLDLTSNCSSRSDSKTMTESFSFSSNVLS

SMILES | IC50 (NK-1) [nM] | IC50 (hSERT; read-out: SERT IC50) [nM] | IC50 (hSERT; SERT IC50 (nM)) [nM]
Cn1cc2cc(C(F)(F)F)cc(COCC3(c4ccccc4)CCNCC3)c2n1 [Example 12, 2-Methyl-7-(((4-phenylpiperidin-4-yl)methoxy)methyl)-5-(trifluoromethyl)-2H-indazole] | 0.01 to 100 | 0.01 to 100 | 
CN1CCC(COCc2cc(C(F)(F)F)cc3cnn(C)c23)(c2ccccc2)CC1 [Example 13, 1-Methyl-7-(((1-methyl-4-phenylpiperidin-4-yl)methoxy)methyl)-5-(trifluoromethyl)-1H-indazole] | 0.01 to 100 | 0.01 to 100 | 
CN1CCC(COCc2cc(C(F)(F)F)cc3cn(C)nc23)(c2ccccc2)CC1 [Example 14, 2-Methyl-7-(((1-methyl-4-phenylpiperidin-4-yl)methoxy)methyl)-5-(trifluoromethyl)-2H-indazole] | 0.01 to 100 | 0.01 to 100 | 
Fc1ccc(C2(COCc3cc(C(F)(F)F)cc4cn[nH]c34)CCNCC2)cc1 [Example 15, 7-(((4-(4-Fluorophenyl)piperidin-4-yl)methoxy)methyl)-5-(trifluoromethyl)-1H-indazole] | 0.01 to 100 | 0.01 to 100 | 
CN1CCC(COCc2cc(C(F)(F)F)cc3cn[nH]c23)(c2ccc(F)cc2)CC1 [Example 16, 7-(((4-(4-Fluorophenyl)-1-methylpiperidin-4-yl)methoxy)methyl)-5-(trifluoromethyl)-1H-indazole] | 0.01 to 100 | 0.01 to 100 | 
Cn1ncc2cc(C(F)(F)F)cc(COCC3(c4ccc(F)cc4)CCNCC3)c21 [Example 17, 7-(((4-(4-Fluorophenyl)piperidin-4-yl)methoxy)methyl)-1-methyl-5-(trifluoromethyl)-1H-indazole] | 0.01 to 100 | 0.01 to 100 | 
Cn1cc2cc(C(F)(F)F)cc(COCC3(c4ccc(F)cc4)CCNCC3)c2n1 [Example 18, 7-(((4-(4-Fluorophenyl)piperidin-4-yl)methoxy)methyl)-2-methyl-5-(trifluoromethyl)-2H-indazole] | 0.01 to 100 | 0.01 to 100 | 
CN1CCC(COCc2cc(C(F)(F)F)cc3cnn(C)c23)(c2ccc(F)cc2)CC1 [Example 19, 7-(((4-(4-Fluorophenyl)-1-methylpiperidin-4-yl)methoxy)methyl)-1-methyl-5-(trifluoromethyl)-1H-indazole] | 0.01 to 100 | 0.01 to 100 | 
c1ccc(C2(COCc3cccc4cn[nH]c34)CCNCC2)cc1 [Example 34, 7-(((4-Phenylpiperidin-4-yl)methoxy)methyl)-1H-indazole] | 100 to 300 | 0.01 to 100 | 
FC(F)(F)c1cc(COCC2(c3ccccc3)CCNCC2)c2[nH]nc(C3CC3)c2c1 [Example 35, 3-Cyclopropyl-7-(((4-phenylpiperidin-4-yl)methoxy)methyl)-5-(trifluoromethyl)-1H-indazole] | 0.01 to 100 | 0.01 to 100 | 
FC(F)(F)c1cc(COCC2(c3ccccc3)CCNCC2)c2[nH]nc(Br)c2c1 [Example 36, 3-Bromo-7-(((4-phenylpiperidin-4-yl)methoxy)methyl)-5-(trifluoromethyl)-1H-indazole] | 0.01 to 100 | 0.01 to 100 | 
Cc1n[nH]c2c(COCC3(c4ccccc4)CCNCC3)cc(C(F)(F)F)cc12 [Example 37, 3-Methyl-7-(((4-phenylpiperidin-4-yl)methoxy)methyl)-5-(trifluoromethyl)-1H-indazole] | 0.01 to 100 | 0.01 to 100 | 
c1ccc(C2(COCc3cc(C4CC4)cc4cn[nH]c34)CCNCC2)cc1 [Example 45, 5-Cyclopropyl-7-(((4-phenylpiperidin-4-yl)methoxy)methyl)-1H-indazole] | 0.01 to 100 | 0.01 to 100 | 
CC(OCC1(c2ccc(F)cc2)CCN(C)CC1)c1cc(N(C)C)cc2cn[nH]c12 (centres unmarked) [Example 51, 7-(1-((4-(4-Fluorophenyl)-1-methylpiperidin-4-yl)methoxy)ethyl)-N,N-dimethyl-1H-indazol-5-amine] | 0.01 to 100 | 0.01 to 100 | 
CN1CCC(COCc2cc(-c3ccc(C#N)cc3)cc3cnn(C4CC4)c23)(c2ccccc2)CC1 [Example 65, 4-(1-Cyclopropyl-7-(((1-methyl-4-phenylpiperidin-4-yl)methoxy)methyl)-1H-indazol-5-yl)benzonitrile] | 100 to 300 |  | 0.01 to 100
CN1CCC(COCc2cc(C(F)(F)F)cc3cc[nH]c23)(c2ccccc2)CC1 [Example 66, 7-(((1-Methyl-4-phenylpiperidin-4-yl)methoxy)methyl)-5-(trifluoromethyl)-1H-indole] | 0.01 to 100 | 0.01 to 100 | 

SMILES | IC50 (NK-1) [nM] | IC50 (hSERT; read-out: SERT IC50) [nM] | IC50 (hSERT; SERT IC50 (nM)) [nM]
CN1CCC(COCc2cc(C(F)(F)F)cc3ccn(C)c23)(c2ccccc2)CC1 [Example 67, 1-Methyl-7-(((1-methyl-4-phenylpiperidin-4-yl)methoxy)methyl)-5-(trifluoromethyl)-1H-indole] | 0.01 to 100 | 0.01 to 100 | 
CN1CCC(COCc2cc(C(F)(F)F)cc3cc[nH]c23)(c2ccc(F)cc2)CC1 [Example 68, 7-(((1-Methyl-4-(4-fluorophenyl)piperidin-4-yl)methoxy)methyl)-5-(trifluoromethyl)-1H-indole] | 0.01 to 100 | 0.01 to 100 | 
CN1CCC(COCc2cc(C(F)(F)F)cc3ccn(C)c23)(c2ccc(F)cc2)CC1 [Example 69, 1-Methyl-7-(((1-methyl-4-(4-fluorophenyl)piperidin-4-yl)methoxy)methyl)-5-(trifluoromethyl)-1H-indole] | 0.01 to 100 | 0.01 to 100 | 
CN1CCC(COCc2cc(C(F)(F)F)cc3[nH]ccc23)(c2ccccc2)CC1 [Example 76, 4-(((1-Methyl-4-phenylpiperidin-4-yl)methoxy)methyl)-6-(trifluoromethyl)-1H-indole 2,2,2-trifluoroacetate] | 0.01 to 100 | 0.01 to 100 | 
CN1CCC(COCc2cc(C(F)(F)F)cc3c2ccn3C)(c2ccccc2)CC1 [Example 77, 1-Methyl-4-(((1-methyl-4-phenylpiperidin-4-yl)methoxy)methyl)-6-(trifluoromethyl)-1H-indole 2,2,2-trifluoroacetate] | 0.01 to 100 | 0.01 to 100 | 
CN1CCC(COCc2cc(C(F)(F)F)cc3nnn(C)c23)(c2ccc(F)cc2)CC1 [Example 78, 7-(((4-(4-Fluorophenyl)-1-methylpiperidin-4-yl)methoxy)methyl)-1-methyl-5-(trifluoromethyl)-1H-benzo[d][1,2,3]triazole] | 100 to 300 | 0.01 to 100 | 
CN1CCC(COCc2cc(C(F)(F)F)cc3nn(C)nc23)(c2ccc(F)cc2)CC1 [Example 79, 4-(((4-(4-Fluorophenyl)-1-methylpiperidin-4-yl)methoxy)methyl)-2-methyl-6-(trifluoromethyl)-2H-benzo[d][1,2,3]triazole] | 0.01 to 100 | 0.01 to 100 | 
CN1CCC(COCc2cc(C(F)(F)F)cc3c2nnn3C)(c2ccc(F)cc2)CC1 [Example 80, 4-(((4-(4-Fluorophenyl)-1-methylpiperidin-4-yl)methoxy)methyl)-1-methyl-6-(trifluoromethyl)-1H-benzo[d][1,2,3]triazole] | 100 to 300 | 0.01 to 100 | 
CN1CCC(COCc2nc3cc(-c4ccc(C#N)cc4)ccc3n2CC2CC2)(c2ccccc2)CC1 [Example 81, 4-(1-(Cyclopropylmethyl)-2-(((1-methyl-4-phenylpiperidin-4-yl)methoxy)methyl)-1H-benzo[d]imidazol-5-yl)benzonitrile] | > 300 | 0.01 to 100 | 
CN1CCC(COCc2nc3cc(Br)ccc3n2CC2CC2)(c2ccccc2)CC1 [Example 82, 5-Bromo-1-(cyclopropylmethyl)-2-(((1-methyl-4-phenylpiperidin-4-yl)methoxy)methyl)-1H-benzo[d]imidazole] | > 300 | 0.01 to 100 | 
CN1CCC(COCc2nc3ccc(Br)cc3n2CC2CC2)(c2ccccc2)CC1 [Example 83, 6-Bromo-1-(cyclopropylmethyl)-2-(((1-methyl-4-phenylpiperidin-4-yl)methoxy)methyl)-1H-benzo[d]imidazole] | > 300 | 0.01 to 100 | 
CN1CCC(COCc2nc3cc(-c4ccc(Cl)cc4Cl)ccc3n2CC2CC2)(c2ccccc2)CC1 [Example 84, 1-(Cyclopropylmethyl)-5-(2,4-dichlorophenyl)-2-(((1-methyl-4-phenylpiperidin-4-yl)methoxy)methyl)-1H-benzo[d]imidazole] | > 300 | 0.01 to 100 | 
CN1CCC(COCc2nc3ccc(C4CC4)cc3n2CC2CC2)(c2ccccc2)CC1 [Example 85, 6-Cyclopropyl-1-(cyclopropylmethyl)-2-(((1-methyl-4-phenylpiperidin-4-yl)methoxy)methyl)-1H-benzo[d]imidazole] | > 300 | 0.01 to 100 | 
CN1CCC(COCc2nc3cc(C(F)(F)F)ccc3n2CC2CC2)(c2ccccc2)CC1 [Example 86, 1-(Cyclopropylmethyl)-2-(((1-methyl-4-phenylpiperidin-4-yl)methoxy)methyl)-5-(trifluoromethyl)-1H-benzo[d]imidazole] | > 300 | 0.01 to 100 | 
CN1CCC(COCc2nc3ccc(C(F)(F)F)cc3n2CC2CC2)(c2ccccc2)CC1 [Example 87, 1-(Cyclopropylmethyl)-2-(((1-methyl-4-phenylpiperidin-4-yl)methoxy)methyl)-6-(trifluoromethyl)-1H-benzo[d]imidazole] | > 300 | 0.01 to 100 | 
